# Target: T1, D(2) dopamine receptor (Homo sapiens, UniProt P14416)
# Experiment: biochemical
# Type: cell-based
# Details: not given; call rule not given here
# T1 sequence (P14416 whole entry): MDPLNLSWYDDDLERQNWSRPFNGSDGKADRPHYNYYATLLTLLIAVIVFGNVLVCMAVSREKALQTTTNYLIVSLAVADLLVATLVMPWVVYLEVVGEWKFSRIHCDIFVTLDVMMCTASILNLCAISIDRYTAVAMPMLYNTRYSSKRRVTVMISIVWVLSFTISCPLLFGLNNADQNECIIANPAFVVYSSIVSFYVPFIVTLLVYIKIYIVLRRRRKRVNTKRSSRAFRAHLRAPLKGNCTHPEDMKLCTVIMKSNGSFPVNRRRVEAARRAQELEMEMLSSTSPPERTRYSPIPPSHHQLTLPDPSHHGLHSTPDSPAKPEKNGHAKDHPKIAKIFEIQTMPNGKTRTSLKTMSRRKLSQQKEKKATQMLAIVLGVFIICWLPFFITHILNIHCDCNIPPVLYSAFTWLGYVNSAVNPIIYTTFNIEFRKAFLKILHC
row,Structure (SMILES),Ki
1,O=C1CCc2ccc(OCCCCN3CCN(c4ccc(O)c5[nH]c(=O)ccc45)CC3)cc2N1,0.89 nM
2,O=C1CCc2ccc(OCCCCN3CCN(c4ccc(O)c5c4OCC(=O)N5)CC3)cc2N1,0.87 nM
3,O=c1ccc2c(N3CCCN(CCCCOc4ccn5nccc5c4)CC3)ccc(O)c2[nH]1,78 nM
4,O=C1CCc2ccc(OCCCCN3CCCN(c4ccc(O)c5oc(=O)ccc45)CC3)cc2N1,100 nM
5,Oc1ccc(N2CCN(CCCCOc3ccn4nccc4c3)CC2)c2c1OCCO2,110 nM
6,O=C1CCc2ccc(OCCCCN3CCN(c4ccc(O)c5c4OCCO5)CC3)cc2N1,2.9 nM

# Target: T1, D(2) dopamine receptor
# Experiment: biochemical
# Type: cell-based
# Details: not given
# Remark: another data set of the same source
row,Structure (SMILES),Ki
1,O=C1CCc2ccc(OCCCCN3CCN(c4ccc(O)c5[nH]c(=O)ccc45)CC3)cc2N1,1 nM
2,O=C1CCc2ccc(OCCCCN3CCN(c4ccc(O)c5c4OCC(=O)N5)CC3)cc2N1,0.67 nM
3,O=c1ccc2c(N3CCCN(CCCCOc4ccn5nccc5c4)CC3)ccc(O)c2[nH]1,46 nM
4,O=C1CCc2ccc(OCCCCN3CCCN(c4ccc(O)c5oc(=O)ccc45)CC3)cc2N1,37 nM
5,Oc1ccc(N2CCN(CCCCOc3ccn4nccc4c3)CC2)c2c1OCCO2,68 nM
6,O=C1CCc2ccc(OCCCCN3CCN(c4ccc(O)c5c4OCCO5)CC3)cc2N1,2.2 nM

# Target: T2, D(4) dopamine receptor (Homo sapiens, UniProt P21917)
# T2 sequence (P21917 whole entry): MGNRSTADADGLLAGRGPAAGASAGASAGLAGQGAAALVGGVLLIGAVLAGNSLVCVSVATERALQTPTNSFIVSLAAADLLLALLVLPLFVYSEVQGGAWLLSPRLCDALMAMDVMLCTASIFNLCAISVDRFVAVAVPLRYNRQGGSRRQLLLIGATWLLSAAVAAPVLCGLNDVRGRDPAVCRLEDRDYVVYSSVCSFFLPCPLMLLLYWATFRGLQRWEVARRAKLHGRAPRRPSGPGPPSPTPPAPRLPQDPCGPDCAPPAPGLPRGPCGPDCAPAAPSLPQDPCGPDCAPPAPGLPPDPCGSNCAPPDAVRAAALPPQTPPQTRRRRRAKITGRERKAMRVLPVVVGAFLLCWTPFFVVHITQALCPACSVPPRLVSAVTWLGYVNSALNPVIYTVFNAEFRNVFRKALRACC
# Experiment: biochemical
# Type: cell-based
# Details: not given
row,Structure (SMILES),Ki
1,O=c1ccc2c(N3CCN(CCCCOc4ccn5nccc5c4)CC3)ccc(O)c2[nH]1,31 nM
2,O=C1CCc2ccc(OCCCCN3CCN(c4ccc(O)c5[nH]c(=O)ccc45)CC3)cc2N1,66 nM
3,O=C1CCc2ccc(OCCCCN3CCN(c4ccc(O)c5c4OCC(=O)N5)CC3)cc2N1,8.3 nM
4,O=c1ccc2c(N3CCCN(CCCCOc4ccn5nccc5c4)CC3)ccc(O)c2[nH]1,190 nM
5,O=C1CCc2ccc(OCCCCN3CCCN(c4ccc(O)c5oc(=O)ccc45)CC3)cc2N1,5000 nM
6,Oc1ccc(N2CCN(CCCCOc3ccn4nccc4c3)CC2)c2c1OCCO2,160 nM
7,O=C1CCc2ccc(OCCCCN3CCN(c4ccc(O)c5c4OCCO5)CC3)cc2N1,300 nM

# Target: T1, D(2) dopamine receptor
# Experiment: not given
# Type: cell-based, HEK-293T
# Details: not given
row,Structure (SMILES),EC50
1,CCCN(CCC)CCc1cccc2c1CC(=O)N2 [ROPINIROLE],89 nM
2,CCCN(CCc1cccs1)[C@H]1CCc2c(O)cccc2C1 [ROTIGOTINE],4.1 nM
3,O=C1CCc2ccc(OCCCCN3CCN(c4ccc(O)c5[nH]c(=O)ccc45)CC3)cc2N1,93 nM
4,O=C1CCc2ccc(OCCCCN3CCN(c4ccc(O)c5c4OCC(=O)N5)CC3)cc2N1,92 nM
5,O=c1ccc2c(N3CCCN(CCCCOc4ccn5nccc5c4)CC3)ccc(O)c2[nH]1,370 nM
6,O=C1CCc2ccc(OCCCCN3CCCN(c4ccc(O)c5oc(=O)ccc45)CC3)cc2N1,220 nM

# Target: T1, D(2) dopamine receptor
# Experiment: not given
# Type: functional, cell-based, HEK-293T
# Details: not given
# Remark: another data set of the same source
row,Structure (SMILES),EC50
1,CCCN(CCC)CCc1cccc2c1CC(=O)N2 [ROPINIROLE],330 nM
2,CCCN(CCc1cccs1)[C@H]1CCc2c(O)cccc2C1 [ROTIGOTINE],3.2 nM
3,O=c1ccc2c(N3CCCN(CCCCOc4ccn5nccc5c4)CC3)ccc(O)c2[nH]1,90 nM
4,O=C1CCc2ccc(OCCCCN3CCCN(c4ccc(O)c5oc(=O)ccc45)CC3)cc2N1,> 5000 nM

# Target: T1, D(2) dopamine receptor
# Experiment: Agonist activity at human D2S receptor expressed in HEK293T cell membranes coexpressing Galphao1 assessed as induction of nucleotide exchange at 30 uM preincubated for 30 mins followed by addition of [35S]GTPgammaS measured after 30 mins by [35S]GTPgammaS binding assay relative to quinpirole
# Type: functional
# Details: HEK-293T
row,Structure (SMILES),Emax
1,O=C1CCc2ccc(OCCCCN3CCCN(c4ccc(O)c5oc(=O)ccc45)CC3)cc2N1,36%

# Target: T1, D(2) dopamine receptor
# Experiment: not given
# Type: cell-based, HEK-293T
# Details: not given
# Remark: another data set of the same source
row,Structure (SMILES),EC50
1,CCCN(CCC)CCc1cccc2c1CC(=O)N2 [ROPINIROLE],30 nM
2,CCCN(CCc1cccs1)[C@H]1CCc2c(O)cccc2C1 [ROTIGOTINE],4.4 nM
3,O=c1ccc2c(N3CCCN(CCCCOc4ccn5nccc5c4)CC3)ccc(O)c2[nH]1,250 nM
4,O=C1CCc2ccc(OCCCCN3CCCN(c4ccc(O)c5oc(=O)ccc45)CC3)cc2N1,130 nM

# Tested on: Liver
# Experiment: Metabolic stability in Sprague-Dawley rat liver microsomes at 20 uM measured after 15 mins by HPLC-based mass-spectrometry
# Type: ADME, microsome
# Details: 0.25 h
row,Structure (SMILES),Stability
1,CCCN(CCc1cccs1)[C@H]1CCc2c(O)cccc2C1 [ROTIGOTINE],Unstable
2,O=c1ccc2c(N3CCCN(CCCCOc4ccn5nccc5c4)CC3)ccc(O)c2[nH]1,Unstable

# Tested on: not listed separately
# Experiment: Half life in Sprague-Dawley rat liver microsomes at 20 uM by HPLC analysis
# Type: ADME, microsome
# Details: not given
row,Structure (SMILES),half-life at 20 µM
1,CCCN(CCc1cccs1)[C@H]1CCc2c(O)cccc2C1 [ROTIGOTINE],5.8 min
2,O=c1ccc2c(N3CCCN(CCCCOc4ccn5nccc5c4)CC3)ccc(O)c2[nH]1,51 min

# Tested on: not listed separately
# Experiment: Intrinsic clearance in Sprague-Dawley rat liver microsomes assessed per mg protein at 20 uM by HPLC analysis
# Type: ADME, microsome
# Details: read-out: CLH
row,Structure (SMILES),microsomal CLint at 20 µM
1,CCCN(CCc1cccs1)[C@H]1CCc2c(O)cccc2C1 [ROTIGOTINE],240 µL/min/mg
2,O=c1ccc2c(N3CCCN(CCCCOc4ccn5nccc5c4)CC3)ccc(O)c2[nH]1,27 µL/min/mg

# Tested on: not listed separately
# Experiment: Binding affinity to microsomal protein in Sprague-Dawley rat liver microsomes after 60 mins in absence of NADPH by HPLC analysis
# Type: ADME
# Details: 1 h
row,Structure (SMILES),PB
1,O=c1ccc2c(N3CCCN(CCCCOc4ccn5nccc5c4)CC3)ccc(O)c2[nH]1,Not Active

# Tested on: HEK293
# Experiment: Cytotoxicity against HEK293 cells
# Type: cell-based
# Details: human
row,Structure (SMILES),Activity
1,O=c1ccc2c(N3CCN(CCCCOc4ccn5nccc5c4)CC3)ccc(O)c2[nH]1,Non-Toxic
2,O=C1CCc2ccc(OCCCCN3CCN(c4ccc(O)c5[nH]c(=O)ccc45)CC3)cc2N1,Non-Toxic
3,O=C1CCc2ccc(OCCCCN3CCN(c4ccc(O)c5c4OCC(=O)N5)CC3)cc2N1,Non-Toxic
4,O=c1ccc2c(N3CCCN(CCCCOc4ccn5nccc5c4)CC3)ccc(O)c2[nH]1,Non-Toxic
5,O=C1CCc2ccc(OCCCCN3CCCN(c4ccc(O)c5oc(=O)ccc45)CC3)cc2N1,Non-Toxic
6,Oc1ccc(N2CCN(CCCCOc3ccn4nccc4c3)CC2)c2c1OCCO2,Non-Toxic
7,O=C1CCc2ccc(OCCCCN3CCN(c4ccc(O)c5c4OCCO5)CC3)cc2N1,Non-Toxic

# Target: T1, D(2) dopamine receptor
# Experiment: not given
# Details: HEK-293T, at 1e-07 to 100 µM
row,Structure (SMILES),Emax
1,CCCN[C@H]1CCc2nc(N)sc2C1,102%
2,CCCN(CCC)CCc1cccc2c1CC(=O)N2 [ROPINIROLE],92%
3,CCCN(CCc1cccs1)[C@H]1CCc2c(O)cccc2C1 [ROTIGOTINE],91%
4,O=c1ccc2c(N3CCCN(CCCCOc4ccn5nccc5c4)CC3)ccc(O)c2[nH]1,56%

# Target: D(1A) dopamine receptor (Homo sapiens, UniProt P21728)
# Sequence (P21728 whole entry): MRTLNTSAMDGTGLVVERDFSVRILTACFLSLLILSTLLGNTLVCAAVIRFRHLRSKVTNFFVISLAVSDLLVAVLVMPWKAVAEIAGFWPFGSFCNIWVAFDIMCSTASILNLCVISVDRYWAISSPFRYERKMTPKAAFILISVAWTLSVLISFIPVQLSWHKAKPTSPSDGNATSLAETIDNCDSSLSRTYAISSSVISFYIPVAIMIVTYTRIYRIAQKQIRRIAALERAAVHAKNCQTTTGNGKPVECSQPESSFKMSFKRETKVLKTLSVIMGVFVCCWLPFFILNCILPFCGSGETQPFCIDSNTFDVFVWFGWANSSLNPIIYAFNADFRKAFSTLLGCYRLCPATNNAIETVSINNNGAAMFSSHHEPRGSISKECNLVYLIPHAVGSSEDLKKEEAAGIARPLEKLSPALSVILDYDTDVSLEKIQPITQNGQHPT
# Experiment: biochemical
# Details: not given
row,Structure (SMILES),Ki
1,O=c1ccc2c(N3CCN(CCCCOc4ccn5nccc5c4)CC3)ccc(O)c2[nH]1,4700 nM
2,O=C1CCc2ccc(OCCCCN3CCN(c4ccc(O)c5[nH]c(=O)ccc45)CC3)cc2N1,5400 nM
3,O=C1CCc2ccc(OCCCCN3CCN(c4ccc(O)c5c4OCC(=O)N5)CC3)cc2N1,12000 nM
4,O=c1ccc2c(N3CCCN(CCCCOc4ccn5nccc5c4)CC3)ccc(O)c2[nH]1,13000 nM
5,O=C1CCc2ccc(OCCCCN3CCCN(c4ccc(O)c5oc(=O)ccc45)CC3)cc2N1,> 20000 nM
6,Oc1ccc(N2CCN(CCCCOc3ccn4nccc4c3)CC2)c2c1OCCO2,5300 nM
7,O=C1CCc2ccc(OCCCCN3CCN(c4ccc(O)c5c4OCCO5)CC3)cc2N1,4500 nM

# Target: D(1B) dopamine receptor (Homo sapiens, UniProt P21918)
# Sequence (P21918 whole entry): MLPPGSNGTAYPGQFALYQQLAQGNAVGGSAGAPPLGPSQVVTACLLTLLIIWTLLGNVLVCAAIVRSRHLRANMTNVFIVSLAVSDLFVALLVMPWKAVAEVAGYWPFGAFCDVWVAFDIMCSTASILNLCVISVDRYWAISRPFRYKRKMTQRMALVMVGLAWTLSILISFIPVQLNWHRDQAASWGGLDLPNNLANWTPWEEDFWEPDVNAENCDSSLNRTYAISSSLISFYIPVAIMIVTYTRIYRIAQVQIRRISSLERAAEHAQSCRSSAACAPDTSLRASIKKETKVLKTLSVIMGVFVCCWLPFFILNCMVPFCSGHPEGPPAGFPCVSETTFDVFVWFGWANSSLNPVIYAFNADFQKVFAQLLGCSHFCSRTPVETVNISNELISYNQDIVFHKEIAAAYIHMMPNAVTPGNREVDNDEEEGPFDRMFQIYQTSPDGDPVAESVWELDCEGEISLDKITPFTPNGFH
# Experiment: biochemical
# Details: not given
row,Structure (SMILES),Ki
1,O=c1ccc2c(N3CCN(CCCCOc4ccn5nccc5c4)CC3)ccc(O)c2[nH]1,13000 nM
2,O=C1CCc2ccc(OCCCCN3CCN(c4ccc(O)c5[nH]c(=O)ccc45)CC3)cc2N1,9300 nM
3,O=C1CCc2ccc(OCCCCN3CCN(c4ccc(O)c5c4OCC(=O)N5)CC3)cc2N1,4200 nM
4,O=c1ccc2c(N3CCCN(CCCCOc4ccn5nccc5c4)CC3)ccc(O)c2[nH]1,> 20000 nM
5,O=C1CCc2ccc(OCCCCN3CCCN(c4ccc(O)c5oc(=O)ccc45)CC3)cc2N1,> 20000 nM
6,Oc1ccc(N2CCN(CCCCOc3ccn4nccc4c3)CC2)c2c1OCCO2,19000 nM
7,O=C1CCc2ccc(OCCCCN3CCN(c4ccc(O)c5c4OCCO5)CC3)cc2N1,16000 nM

# Target: 5-hydroxytryptamine receptor 2A (Homo sapiens, UniProt P28223)
# Sequence (P28223 whole entry): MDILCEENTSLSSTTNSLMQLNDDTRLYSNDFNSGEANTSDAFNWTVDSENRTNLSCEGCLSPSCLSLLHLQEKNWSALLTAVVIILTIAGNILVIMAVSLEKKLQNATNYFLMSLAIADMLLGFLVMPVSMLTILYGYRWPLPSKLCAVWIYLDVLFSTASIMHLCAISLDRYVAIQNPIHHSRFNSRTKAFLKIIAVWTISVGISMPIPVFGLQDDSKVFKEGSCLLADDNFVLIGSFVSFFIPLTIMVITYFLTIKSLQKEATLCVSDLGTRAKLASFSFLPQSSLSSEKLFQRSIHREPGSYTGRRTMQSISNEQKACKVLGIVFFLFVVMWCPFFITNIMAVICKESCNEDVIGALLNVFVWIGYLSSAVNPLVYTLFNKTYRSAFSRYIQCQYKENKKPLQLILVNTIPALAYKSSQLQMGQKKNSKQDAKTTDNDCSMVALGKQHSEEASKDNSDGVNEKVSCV
# Experiment: biochemical
# Details: not given
row,Structure (SMILES),Ki
1,O=c1ccc2c(N3CCN(CCCCOc4ccn5nccc5c4)CC3)ccc(O)c2[nH]1,3600 nM
2,O=C1CCc2ccc(OCCCCN3CCN(c4ccc(O)c5[nH]c(=O)ccc45)CC3)cc2N1,2200 nM
3,O=C1CCc2ccc(OCCCCN3CCN(c4ccc(O)c5c4OCC(=O)N5)CC3)cc2N1,430 nM
4,O=c1ccc2c(N3CCCN(CCCCOc4ccn5nccc5c4)CC3)ccc(O)c2[nH]1,9000 nM
5,O=C1CCc2ccc(OCCCCN3CCCN(c4ccc(O)c5oc(=O)ccc45)CC3)cc2N1,2300 nM
6,Oc1ccc(N2CCN(CCCCOc3ccn4nccc4c3)CC2)c2c1OCCO2,480 nM
7,O=C1CCc2ccc(OCCCCN3CCN(c4ccc(O)c5c4OCCO5)CC3)cc2N1,160 nM

# — ChEMBL document CHEMBL4014323, “Hydroxy-Substituted Heteroarylpiperazines: Novel Scaffolds for β-Arrestin-Biased D2R Agonists” (J Med Chem, 2017)
